Data as given in patent US20240050588A1, “PHARMACEUTICAL COMPOSITION CONTAINING PROPOFOL, A CYCLODEXTRIN OR A CYCLODEXTRIN DERIVATIVE AND A PHARMACEUTICALLY ACCEPTABLE SALT” (CENTRE HOSPITALIER UNIVERSITAIRE DE LILLE, priority 2020, published 2024).
Where “and” joins values, the source holds several entries; their conditions need not be identical. Identical values can stand only once.

Experiment: Propofol phase-solubility tests with cyclodextrins according to the method of Higuchi and Connors
Settings: 25 °C, water, thermodynamic from solid
Experimental: A large excess of propofol is added to 1.4 ml of the appropriate cyclodextrin solution. The resulting mixtures are vortexed for about 5 min and stirred at a temperature 25±0.5° C. for 24 hours. About 1 ml of the solution is transferred using a Pasteur pipette into an Eppendorf tube. Afterwards, these tubes are centrifuged for 30 min at 13,200 rpm. Afterwards, 40 μl of the aqueous phase are sampled and then diluted to 1/10 in ethanol and to 40/1,000 in a solution of acetonitrile and an ammonia buffer pH 9.2. Afterwards, these samples are filtered through a 0.2 μm filter and then put in vial before analysis by high-performance liquid chromatography with UV detection. The injection volume was 10 microliters (cf. injection loop). […] The stability constants Kc are estimated from the slope of the line of the phase-solubility diagram according to the following equation: Kc=slope/S0 (1−slope).
The stability constant Kc is calculated from the slope of the line of the phase-solubility diagram according to the following equation: Kc=slope/S0(1−slope).
The used 2-hydropropyl-β-cyclodextrin is still that one selected before (HPB-LB). […]
The results of the solubility tests have been analysed again more particularly with the complexation efficiency (CE), calculated using the equation: […]

Question: With `CC(C)c1cccc(C(C)C)c1O` [propofol, 2,6-bis(propan-2-yl)phenol] as the compound, how does the solubility at 24 h read?
Answer: The solubility at 24 h was 1070 µM and 190 µg/mL.
